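Method: 48-hour compound exposure of cells in 96-well plates, five concentrations, linear interpolation of endpoints. GI50 is the concentration that inhibits growth by half.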 Calls of active or inactive are those of the source. Cut-off read from the data, not from the text of the source: active = GI50 up to about 1.1 µM and inactive = higher.
What was measured:
Test in all cases: growth of human tumour cells (NCI), 48 h
SNB-75 = test system: SNB-75
NCI-H226 = test system: NCI-H226
KM12 = test system: KM12
UO-31 = test system: UO-31
PC-3 = test system: PC-3
HCC 2998 = test system: HCC 2998
CCRF-CEM = test system: CCRF-CEM
HOP-92 = test system: HOP-92
CAKI-1 = test system: CAKI-1
SR = test system: SR
SW-620 = test system: SW-620
MDA-MB-435 = test system: MDA-MB-435
Hs-578T = test system: Hs-578T
SF-539 = test system: SF-539
RXF 393 = test system: RXF 393
SK-OV-3 = test system: SK-OV-3
SN12C = test system: SN12C
COLO 205 = test system: COLO 205
MOLT-4 = test system: MOLT-4
M14 = test system: M14
UACC-62 = test system: UACC-62
OVCAR-4 = test system: OVCAR-4
TK-10 = test system: TK-10
ACHN = test system: ACHN
SK-MEL-28 = test system: SK-MEL-28
MDA-MB-231 = test system: MDA-MB-231
MDA-N = test system: MDA-N
T47D = test system: T47D
HCT-116 = test system: HCT-116
DU-145 = test system: DU-145
BT-549 = test system: BT-549
OVCAR-5 = test system: OVCAR-5
HT-29 = test system: HT-29
K562 = test system: K562
NCI-H23 = test system: NCI-H23
SK-MEL-5 = test system: SK-MEL-5
Malme-3M = test system: Malme-3M
MCF7 = test system: MCF7
OVCAR-8 = test system: OVCAR-8
U-251 = test system: U-251
IGROV-1 = test system: IGROV-1
HL-60 = test system: HL-60
EKVX = test system: EKVX
SF-295 = test system: SF-295
A498 = test system: A498
UACC-257 = test system: UACC-257
HOP-62 = test system: HOP-62
NCI-H522 = test system: NCI-H522
A549 = test system: A549
SF-268 = test system: SF-268
786-0 = test system: 786-0
SNB-19 = test system: SNB-19
NCI-H460 = test system: NCI-H460
OVCAR-3 = test system: OVCAR-3

Measured: GI50

CC1(C)C2CCC1(C)C(NC(=O)CCN1CCOCC1)C2 (centres undefined)
inactive: SNB-75 > 100 µM | NCI-H226 > 100 µM | KM12 > 100 µM | UO-31 > 100 µM | PC-3 > 100 µM | HCC 2998 > 100 µM | CCRF-CEM > 100 µM | HOP-92 > 100 µM | CAKI-1 > 100 µM | SR > 100 µM | SW-620 > 100 µM | MDA-MB-435 > 100 µM | Hs-578T > 100 µM | SF-539 > 100 µM | RXF 393 > 100 µM | SK-OV-3 > 100 µM | SN12C > 100 µM | COLO 205 > 100 µM | MOLT-4 > 100 µM | M14 > 100 µM | UACC-62 > 100 µM | OVCAR-4 > 100 µM | TK-10 > 100 µM | ACHN > 100 µM | SK-MEL-28 > 100 µM | MDA-MB-231 > 100 µM | MDA-N > 100 µM | T47D > 100 µM | HCT-116 > 100 µM | DU-145 > 100 µM | BT-549 > 100 µM | OVCAR-5 > 100 µM | HT-29 > 100 µM | K562 > 100 µM | NCI-H23 > 100 µM | SK-MEL-5 > 100 µM | Malme-3M > 100 µM | MCF7 > 100 µM | OVCAR-8 > 100 µM | U-251 > 100 µM | IGROV-1 > 100 µM | HL-60 > 100 µM | EKVX > 100 µM | SF-295 > 100 µM | A498 > 100 µM | UACC-257 > 100 µM | HOP-62 > 100 µM | NCI-H522 > 100 µM | A549 > 100 µM | SF-268 > 100 µM | 786-0 > 100 µM | SNB-19 > 100 µM | NCI-H460 > 100 µM | OVCAR-3 > 100 µM
